{"source": "patent US20220184071A1", "about": "“GEPOTIDACIN FOR USE IN THE TREATMENT OF BACTERIAL URINARY TRACT INFECTIONS” (GlaxoSmithKline Intellectual Property Development Limited, priority 2019, published 2022)", "key": {"Providencia stuartii": {"system": "Providencia stuartii", "assay": "MIC by CLSI broth microdilution, isolates from UTI patients (Example 7)", "type": "cell-based", "settings": "n=1", "experimental": "(§1) Gepotidacin was tested against the following organisms obtained from UTI patients, in serial two-fold dilutions. The minimum inhibitory concentration (MIC) was determined by broth microdilution according to CLSI methods."}, "Citrobacter amalonaticus": {"system": "Citrobacter amalonaticus", "assay": "MIC by CLSI broth microdilution, isolates from UTI patients (Example 7)", "type": "cell-based", "settings": "n=1", "experimental": "as §1"}, "Acidovorax temperans": {"system": "Acidovorax temperans", "assay": "MIC by CLSI broth microdilution, isolates from UTI patients (Example 7)", "type": "cell-based", "settings": "n=1", "experimental": "as §1"}, "Bacteroides stercoris": {"system": "Bacteroides stercoris", "assay": "MIC by broth microdilution, drug-resistant isolates", "type": "cell-based", "settings": "ceftriaxone R, 2 isolates", "experimental": "(§2) Additional analysis was performed from the results of the study described in Method 1 above, to determine the in vitro activity of gepotidacin against gram-negative and gram-positive anaerobic organisms with resistance to ceftriaxone, clindamycin, imipenem, metronidazole, moxifloxacin and piperacillin/tazobactam."}, "Bacteroides vulgatus": {"system": "Bacteroides vulgatus", "assay": "MIC by broth microdilution, drug-resistant isolates", "type": "cell-based", "experimental": "as §2"}, "Bacteroides fragilis": {"system": "Bacteroides fragilis", "assay": "MIC by broth microdilution, drug-resistant isolates", "type": "cell-based", "experimental": "as §2"}, "[1]": {"assay": "Saliva exposure, healthy volunteers", "type": "in vivo, human", "settings": "1500 mg oral single dose", "experimental": "Antibiotic target site exposures play a key role as suboptimal levels may lead to therapeutic failure and resistance. Across multiple clinical studies, exposures to gepotidacin were assessed in plasma and other matrices, such as urine, saliva, epithelial lining fluid (ELF) and Alveolar Macrophages (AM).\nBronchoalveolar lavage samples were collected to determine gepotidacin exposures in ELF and AM following a single 1000 mg IV infusion over 2 hours to healthy subjects. Saliva exposure was assessed in healthy volunteers following 1500 mg oral single dose. Gepotidacin exposures in urine was assessed in women with acute uUTI following 1500 mg BID oral doses for 5 days."}}, "data": [{"smiles": "O=c1ccc2ncc(=O)n3c2n1C[C@H]3CN1CCC(NCc2cc3c(cn2)OCCC3)CC1", "note": "[gepotidacin, (2R)-2-({4-[(3,4-dihydro-2H-pyrano[2,3-c]pyridin-6-ylmethyl)amino]-1-piperidinyl}methyl)-1,2-dihydro-3H,8H-2a,5,8a-triazaacenaphthylene-3,8-dione]", "values": [{"measurement": "MIC", "setting": "Providencia stuartii", "result": 32, "unit": "µg/mL"}, {"measurement": "MIC", "setting": "Citrobacter amalonaticus", "result": 2, "unit": "µg/mL"}, {"measurement": "MIC", "setting": "Acidovorax temperans", "result": 1, "unit": "µg/mL"}, {"measurement": "Gepotidacin MIC range", "setting": "Bacteroides stercoris", "result": "≤0.015 to 0.5", "unit": "µg/mL"}, {"measurement": "Gepotidacin MIC range", "setting": "Bacteroides vulgatus; ceftriaxone R, 7 isolates", "result": "0.06 to 4", "unit": "µg/mL"}, {"measurement": "Gepotidacin MIC range", "setting": "Bacteroides vulgatus; clindamycin R, 4 isolates", "result": "0.06 to 0.5", "unit": "µg/mL"}, {"measurement": "Gepotidacin MIC range", "setting": "Bacteroides vulgatus; moxifloxacin R, 3 isolates", "result": "0.25 to 4", "unit": "µg/mL"}, {"measurement": "Gepotidacin MIC range", "setting": "Bacteroides fragilis; ceftriaxone R, 24 isolates", "result": "0.25 to 16", "unit": "µg/mL"}, {"measurement": "Gepotidacin MIC range", "setting": "Bacteroides fragilis; clindamycin R, 23 isolates", "result": "0.06 to 16", "unit": "µg/mL"}, {"measurement": "Gepotidacin MIC range", "setting": "Bacteroides fragilis; imipenem R, 2 isolates", "result": "1 to 4", "unit": "µg/mL"}, {"measurement": "Gepotidacin MIC range", "setting": "Bacteroides fragilis; moxifloxacin R, 20 isolates", "result": "0.25 to 8", "unit": "µg/mL"}, {"measurement": "Gepotidacin MIC range", "setting": "Bacteroides fragilis; pip/tazo R, 2 isolates", "result": "1 to 4", "unit": "µg/mL"}, {"measurement": "ratio of saliva AUC to unbound plasma AUC", "setting": "[1]", "result": "close to unity"}]}]}
